Source: US10072011B2, “Substituted bridged urea analogs as sirtuin modulators” (GlaxoSmithKline Intellectual Property (No.2) Limited, priority 2014, dated 2018)

Biological target: T1, SIRT1 (Homo sapiens, UniProt Q96EB6)
T1 sequence (Q96EB6 1-747): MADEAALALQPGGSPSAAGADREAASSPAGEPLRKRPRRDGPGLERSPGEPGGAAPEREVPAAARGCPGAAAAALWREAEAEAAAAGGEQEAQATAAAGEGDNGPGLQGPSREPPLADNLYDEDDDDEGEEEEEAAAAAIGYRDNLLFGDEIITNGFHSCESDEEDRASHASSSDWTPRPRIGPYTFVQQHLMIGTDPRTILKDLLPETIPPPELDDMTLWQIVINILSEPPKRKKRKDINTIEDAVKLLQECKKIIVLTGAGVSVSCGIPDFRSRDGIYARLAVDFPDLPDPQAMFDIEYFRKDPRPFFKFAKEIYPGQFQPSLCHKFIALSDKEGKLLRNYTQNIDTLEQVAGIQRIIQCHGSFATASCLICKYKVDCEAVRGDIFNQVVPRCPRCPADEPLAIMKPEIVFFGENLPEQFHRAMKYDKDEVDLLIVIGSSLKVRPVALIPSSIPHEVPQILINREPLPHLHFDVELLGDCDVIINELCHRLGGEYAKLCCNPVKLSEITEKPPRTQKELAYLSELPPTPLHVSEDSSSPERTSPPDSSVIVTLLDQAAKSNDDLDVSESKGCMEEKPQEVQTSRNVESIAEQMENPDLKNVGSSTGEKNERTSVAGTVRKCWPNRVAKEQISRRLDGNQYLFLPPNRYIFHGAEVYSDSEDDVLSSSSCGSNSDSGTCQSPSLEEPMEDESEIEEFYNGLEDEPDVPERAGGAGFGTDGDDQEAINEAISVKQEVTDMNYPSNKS
Assay: Trp mass spectrometry assay of SIRT1 activation (Ac-R-H-K-K(Ac)-W-NH2 peptide)
Format: biochemical
Details: Trp peptide 0.5 μM, 120 μM βNAD+, 10 nM SIRT1, 25 min at 25° C.; for Emax: 25 min, relative to control (100%), read-out: TRP MAX RESP (percent maximum fold activation)
In short: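 N-terminal His-tagged human SIRT1, expressed in BL21(DE3) and purified, was incubated 25 min with an acetylated Trp peptide and NAD plus test compound at varying concentrations, then quenched with formic acid. OAADPR or deacetylated peptide was quantified by mass spectrometry versus compound-free control; EC1.5 is the concentration giving 50% activity increase, with percent maximum activation.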

Structure (SMILES)	Emax	TRP Activity (EC1.5, concentration of test compound that results in 150% activation of SIRT1)
CNC(=O)c1ccnc(NC(=O)N2c3nc(C(=O)N[C@H](C)C(F)(F)F)ccc3N3CC[C@H]2C3)c1 [Example 151, (4S)—N5-(4-(methylcarbamoyl)pyridin-2-yl)-N7-((R)-1,1,1-trifluoropropan-2-yl)-3,4-dihydro-1,4-methanopyrido[2,3-b][1,4]diazepine-5,7(2H)-dicarboxamide]	> 150%	A (EC1.5<1 μM)
C[C@@H](NC(=O)c1ccc2c(n1)N(C(=O)Nc1cc(C(=O)NN)ccn1)[C@H]1CCN2C1)C(F)(F)F [Example 152, (4S)—N5-(4-(hydrazinecarbonyl)pyridin-2-yl)-N7-((R)-1,1,1-trifluoropropan-2-yl)-3,4-dihydro-1,4-methanopyrido[2,3-b][1,4]diazepine-5,7(2H)-dicarboxamide]	> 150%	A (EC1.5<1 μM)
C[C@@H](NC(=O)c1ccc2c(n1)N(C(=O)Nc1ccc(OC[C@@H](O)CO)cn1)[C@H]1CCN2C1)C(F)(F)F [Example 153, (4S)—N5-(5-((S)-2,3-dihydroxypropoxy)pyridin-2-yl)-N7-((R)-1,1,1-trifluoropropan-2-yl)-3,4-dihydro-1,4-methanopyrido[2,3-b][1,4]diazepine-5,7(2H)-dicarboxamide]	> 150%	A (EC1.5<1 μM)
C[C@@H](NC(=O)c1ccc2c(n1)N(C(=O)Nc1nccc(OC[C@@H](O)CO)n1)[C@H]1CCN2C1)C(F)(F)F [Example 154, (4S)—N5-(4-((S)-2,3-dihydroxypropoxy)pyrimidin-2-yl)-N7-((R)-1,1,1-trifluoropropan-2-yl)-3,4-dihydro-1,4-methanopyrido[2,3-b][1,4]diazepine-5,7(2H)-dicarboxamide]	> 150%	A (EC1.5<1 μM)
C[C@@H](NC(=O)c1ccc2c(n1)N(C(=O)Nc1cncc(OC[C@H](O)CO)n1)[C@H]1CCN2C1)C(F)(F)F [Example 155, (4S)—N5-(6-((R)-2,3-dihydroxypropoxy)pyrazin-2-yl)-N7-((R)-1,1,1-trifluoropropan-2-yl)-3,4-dihydro-1,4-methanopyrido[2,3-b][1,4]diazepine-5,7(2H)-dicarboxamide]	> 150%	A (EC1.5<1 μM)
Cc1ncc(-c2ccnc(NC(=O)N3c4nc(C(=O)N[C@H](C)C(F)(F)F)ccc4N4CC[C@H]3C4)n2)o1 [Example 156, (4S)—N5-(4-(2-methyloxazol-5-yl)pyrimidin-2-yl)-N7-((R)-1,1,1-trifluoropropan-2-yl)-3,4-dihydro-1,4-methanopyrido[2,3-b][1,4]diazepine-5,7(2H)-dicarboxamide]	> 150%	A (EC1.5<1 μM)
Cc1ncc(-c2ccnc(NC(=O)N3c4nc(C(=O)NCC(F)(F)F)ccc4N4CC[C@H]3C4)n2)o1 [Example 157, (4S)—N5-(4-(2-methyloxazol-5-yl)pyrimidin-2-yl)-N7-(2,2,2-trifluoroethyl)-3,4-dihydro-1,4-methanopyrido[2,3-b][1,4]diazepine-5,7(2H)-dicarboxamide]	> 150%	A (EC1.5<1 μM)
N#Cc1ccc(NC(=O)N2c3nc(C(=O)NCC(F)(F)F)ccc3N3CC[C@H]2C3)nc1 [Example 158, (4S)—N5-(5-cyanopyridin-2-yl)-N7-(2,2,2-trifluoroethyl)-3,4-dihydro-1,4-methanopyrido[2,3-b][1,4]diazepine-5,7(2H)-dicarboxamide]	> 150%	A (EC1.5<1 μM)
O=C(N[C@H](CO)C(F)(F)F)c1ccc2c(n1)N(C(=O)Nc1cc3c(cn1)OCCC3)[C@H]1CCN2C1 [Example 159]	> 150%	A (EC1.5<1 μM)
O=C(NC1CC1)c1ccc2c(n1)N(C(=O)Nc1cc3c(cn1)OCCC3)[C@H]1CCN2C1 [Example 160, (4S)—N7-cyclopropyl-N5-(3,4-dihydro-2H-pyrano[2,3-c]pyridin-6-yl)-3,4-dihydro-1,4-methanopyrido[2,3-b][1,4]diazepine-5,7(2H)-dicarboxamide]	> 150%	A (EC1.5<1 μM)
O=C(NCC(F)(F)F)c1ccc2c(n1)N(C(=O)Nc1cc(OCCO)ccn1)[C@H]1CCN2C1 [Example 161, (4S)—N5-(4-(2-hydroxyethoxy)pyridin-2-yl)-N7-(2,2,2-trifluoroethyl)-3,4-dihydro-1,4-methanopyrido[2,3-b][1,4]diazepine-5,7(2H)-dicarboxamide]	> 150%	A (EC1.5<1 μM)
C[C@@H](NC(=O)c1ccc2c(n1)N(C(=O)Nc1cc(OC[C@@H](O)CO)ncn1)[C@H]1CCN2C1)C(F)(F)F [Example 162, (4S)—N5-(6-((S)-2,3-dihydroxypropoxy)pyrimidin-4-yl)-N7-((R)-1,1,1-trifluoropropan-2-yl)-3,4-dihydro-1,4-methanopyrido[2,3-b][1,4]diazepine-5,7(2H)-dicarboxamide]	> 150%	A (EC1.5<1 μM)
C[C@@H](NC(=O)c1ccc2c(n1)N(C(=O)Nc1n[nH]c3ncccc13)[C@H]1CCN2C1)C(F)(F)F [Example 163, (4S)—N5-(1H-pyrazolo[3,4-b]pyridin-3-yl)-N7-((R)-1,1,1-trifluoropropan-2-yl)-3,4-dihydro-1,4-methanopyrido[2,3-b][1,4]diazepine-5,7(2H)-dicarboxamide]	> 150%	A (EC1.5<1 μM)
C#Cc1ccnc(NC(=O)N2c3nc(C(=O)NCC(F)(F)F)ccc3N3CC[C@H]2C3)c1 [Example 164, (4S)—N5-(4-ethynylpyridin-2-yl)-N7-(2,2,2-trifluoroethyl)-3,4-dihydro-1,4-methanopyrido[2,3-b][1,4]diazepine-5,7(2H)-dicarboxamide]	> 150%	A (EC1.5<1 μM)
C[C@@H](NC(=O)c1ccc2c(n1)N(C(=O)Nc1cc(N3CCOC3=O)ccn1)[C@H]1CCN2C1)C(F)(F)F [Example 165, (4S)—N5-(4-(2-oxooxazolidin-3-yl)pyridin-2-yl)-N7-((R)-1,1,1-trifluoropropan-2-yl)-3,4-dihydro-1,4-methanopyrido[2,3-b][1,4]diazepine-5,7(2H)-dicarboxamide]	> 150%	A (EC1.5<1 μM)
C[C@@H](NC(=O)c1ccc2c(n1)N(C(=O)Nc1ncc3[nH]cnc3n1)[C@H]1CCN2C1)C(F)(F)F [Example 166, (4S)—N5-(7H-purin-2-yl)-N7-((R)-1,1,1-trifluoropropan-2-yl)-3,4-dihydro-1,4-methanopyrido[2,3-b][1,4]diazepine-5,7(2H)-dicarboxamide]	> 150%	A (EC1.5<1 μM)
CC(=O)Nc1ccnc(NC(=O)N2c3nc(C(=O)NCC(F)(F)F)ccc3N3CC[C@H]2C3)c1 [Example 167, (4S)—N5-(4-acetamidopyridin-2-yl)-N7-(2,2,2-trifluoroethyl)-3,4-dihydro-1,4-methanopyrido[2,3-b][1,4]diazepine-5,7(2H)-dicarboxamide]	> 150%	A (EC1.5<1 μM)
CNC(=O)c1ccc(NC(=O)N2c3nc(C(=O)NCC(F)(F)F)ccc3N3CC[C@H]2C3)nc1 [Example 168, (4S)—N5-(5-(methylcarbamoyl)pyridin-2-yl)-N7-(2,2,2-trifluoroethyl)-3,4-dihydro-1,4-methanopyrido[2,3-b][1,4]diazepine-5,7(2H)-dicarboxamide]	> 150%	A (EC1.5<1 μM)
Cc1ncc(-c2cc(NC(=O)N3c4nc(C(=O)NCC(F)(F)F)ccc4N4CC[C@H]3C4)ncn2)o1 [Example 169, (4S)—N5-(6-(2-methyloxazol-5-yl)pyrimidin-4-yl)-N7-(2,2,2-trifluoroethyl)-3,4-dihydro-1,4-methanopyrido[2,3-b][1,4]diazepine-5,7(2H)-dicarboxamide]	> 150%	A (EC1.5<1 μM)
